Assay results taken from US9393250B2, “Phthalocyanine compounds useful as RecA inhibitors and methods of using same” (University of Saskatchewan, priority 2012, dated 2016).

Key:
ATCC25922 cells = assay: Hydroxyl radical production (HPF, flow cytometry); type: cell-based, Escherichia coli; conditions: 4,4-Fe-PcTs 25 μM; ciprofloxacin 40 nM; three hours
Method: To confirm that 4,4-Fe-PcTs inhibited the SOS response by a mechanism independent of blocking hydroxyl radical production, the ability of 4,4-Fe-PcTs to decrease hydroxyl radical levels in the presence of bactericidal antibiotics was assayed. Hydroxyphenyl fluorescein was used to measure hydroxyl radical formation in bacteria. Hydroxyl radical production was measured using flow cytometry with […] fluorescein (HPF, Invitrogen) as described previously. ATCC25922 cells were grown to OD600 of 0.3. For cultures treated with 4,4-Fe-PcTs, the 4,4-Fe-PcTs was added to give a concentration of 25 μM and the culture was incubated for three hours at 37° C. […] Samples (˜10^6 cells) were taken immediately before the addition of antibiotics (time zero) and every hour for three hours. The samples were washed once in PBS, and resuspended in PBS prior to analysis by flow cytometry. Hydroxyl radical production was monitored using a flow cytometer (Beckman Coulter, Inc.) with a 488 nm argon laser and a 515-545 nm emission. Flow cytometry data were analyzed using Flowjo (Tree Star, Inc.).

EcRecA / EcLexA = EcRecA / EcLexA (Escherichia coli, UniProt P0A7G6); conditions: in presence of ATPγS
Method: The LexA cleavage reaction (10 μl) contained 1 μM poly-(dT)45, 2 μM EcRecA, 10 μM EcLexA, 0.1 mM ATP-γ-S, 20 mM MgAc2, 50 mM Hepes-Tris at pH 7.6 and indicated concentrations of 4,4-Fe-PcTs or 3,4-Cu-PcTs. The reaction was incubated for 120 minutes at 21° C. and stopped by the addition of 5 μl of loading buffer (30% glycerol, 10% SDS, 0.2 M Tris-HCl at pH 6.8, 0.1% v/v 2-mercaptoethanol and 0.1% w/v bromophenol blue). The products were resolved using a 13% SDS-polyacrylamide gel. The proteins were stained with Coomassie Blue-R250.

EcRecA [1] = molecular target: T1, EcRecA (Escherichia coli, UniProt P0A7G6); conditions: gel shift; 0, 10, 100 μM
ATCC25922 E. coli = assay: Ciprofloxacin resistance assay and reconstruction assay (in vitro mutagenesis); type: cell-based, Escherichia coli
Method: An in vitro mutagenesis assay [1] was used to measure the ability of 4,4-Fe-PcTs to block the acquisition of ciprofloxacin-induced resistance in ATCC25922 E. coli. ATCC25922 cells were plated on media containing ciprofloxacin in the presence or absence of 4,4-Fe-PcTs and cultured for 10 days. Colonies that appeared early in the assay (days 1 and 2) are believed to arise from pre-existing ciprofloxacin resistance mutations [1]. Colonies that appear later in the incubation (days 3 to 8) are due to ciprofloxacin resistance mutations acquired during exposure to ciprofloxacin or pre-existing mutations with a slow growth phenotype [1].
To distinguish between these two types of mutants, a reconstruction assay that tests for the time it takes for colonies to appear in the presence of ciprofloxacin was used. Colonies that appear at least two days faster than they appeared in the original ciprofloxacin mutagenesis screen were classified as colonies that acquire resistance after exposure to ciprofloxacin [1]. Colonies that appeared in the same number of days as in the ciprofloxacin resistance assay were classified as colonies with pre-existing mutations [1].
Twenty-five independent colonies of ATCC2592 were used to inoculate 25 LB broth cultures that were incubated at 37° C. for 25 hours. Viable cell counts in these cultures were determined by plating serial dilutions onto LB agar plates. One hundred microliters from each culture (˜10^8 cells) were plated in duplicate on LB agar containing ciprofloxacin (CFX) (40 nM) or ciprofloxacin (40 nM) and 4,4-Fe-PcTs (25 μM) (CFX+4,4-Fe-PcTs). Three additional 100 μL aliquots from three cultures were also plated on the same media to determine the number of viable cells per day. At 24 hour intervals, visible colonies were counted, removed from the plate, and stored at −80° C. for later use in the reconstruction assay and sequencing. Every 24 hours, in parallel with the resistance assay, small plugs of agar between visible colonies were excised from resistance assay plates. Agar plugs were homogenized in M9 buffer. Dilutions were plated in duplicate on LB plates to determine the total number of viable cells per day. The cells were also plated on LB containing CFX (40 nM) to determine if any CFX-resistant colonies remained after excision [1].
Reconstruction assays were used to determine whether ciprofloxacin resistant colonies were due to post-exposure mutation or due to mutation prior to ciprofloxacin exposure. Ciprofloxacin resistant clones isolated from the resistance assay were grown to saturation in LB media in 96 well plates. Cultures were then replica-plated in duplicate using a 96-pin replicator on LB plates to confirm viability and LB plates containing ciprofloxacin (40 nM) to confirm ciprofloxacin resistance. Ciprofloxacin-resistant clones that were isolated in the presence 4,4-Fe-PcTs were replica plated on LB and LB containing 4,4-Fe-PcTs (25 μM) and ciprofloxacin (40 nM). Clones that were resistant before ciprofloxacin exposure were defined as clones that formed colonies on the ciprofloxacin-containing media in the same number of days in the reconstruction assay as in the original resistance assay. Clones that mutated after exposure to ciprofloxacin were defined as clones that formed colonies earlier than in the original resistance assay [1].
The rate of ciprofloxacin resistance was defined as the number of ciprofloxacin-resistant mutants per viable cell that evolve as a function of time. […]

EcRecA [2] = molecular target: T1, EcRecA; conditions: gel shift; 0, 10, 100 μM; remark: listed apart in the source
Method: EcRecA (4 μM), a 1.0-kb double-stranded DNA (dsDNA) PCR product (12 μM in base pairs), and indicated concentrations of 4,4-Fe-PcTs or 3,4-Cu-PcTs were incubated in binding buffer (5 mM MgAc2, 50 mM Tris-Hepes at pH 7.6) for 10 minutes at 37° C. EcRecA bound (slower migrating) and unbound dsDNA were resolved using a 1.0% agarose gel. The gel was stained with ethidium bromide and the fluorescence emission in the gel was recorded using a Kodak GelLogic 200 system.

EcRecA [3] = molecular target: T1, EcRecA; conditions: in presence of ATPγS
Method: EcRecA (5 μM) was incubated with indicated concentrations of 4,4-Fe-PcTs or 3,4-Cu-PcTs in strand exchange buffer (2 mM ATP-γ-S(Sigma-Aldrich), 10 mM MgAc2, 100 mM KAc, 50 mM Hepes-Tris buffer at pH 7.6, 0.1% v/v 2-mercaptoethanol) for 10 minutes at 37° C. FAM43 (0.35 μM) was added and the reaction was incubated for 2 minutes. The reaction was started by the addition of 0.35 μM of the dsDNA substrate (annealing product of equimolar oligonucleotides 45A and 55A). The reaction was stopped at 30 minutes by adding EDTA to a final concentration of 20 mM and trypsin to a final concentration of 1 μg/μl. After 10 minutes, 10 μl of the reaction was mixed with 5 μl of loading buffer (30% glycerol and 0.1% bromophenol blue) and products were resolved using a 20% native acrylamide gel. The fluorescence emission in the gel was recorded using a Kodak GelLogic 200 system.

[4] = test system: Enterococcus faecalis ATCC29212; assay: Antibiotic sensitivity assay (CFUs/ml), E. faecalis; type: cell-based; conditions: compound 25 μM; ciprofloxacin 6.5 μM
Method: Bacterial cultures were diluted to 10^5 cells/mL in LB broth (ATCC25922) or MH broth (ATCC27853, ATCC29212, ATCC29213). Antibiotics and/or phthalocyanines were added at indicated concentrations and the culture was incubated at 37° C. Samples were collected at 0, 24, 48, and 72 hours and plated on LB agar (ATCC25922) or tryptic soy blood agar (ATCC27853, ATCC29212, ATCC29213) to determine CFUs/ml.
To confirm that the activity of 4,4-Fe-PcTs was not specific to the gram-negative ATCC25922 E. coli, the ability of 4,4-Fe-PcTs to potentiate the activity of ciprofloxacin in another gram-negative (Pseudomonas aeruginosa ATCC27853) strain and two gram-positive (Staphylococcus aureus ATCC29213 and Enterococcus faecalis ATCC29212) strains was evaluated.

T1 sequence (P0A7G6 whole entry): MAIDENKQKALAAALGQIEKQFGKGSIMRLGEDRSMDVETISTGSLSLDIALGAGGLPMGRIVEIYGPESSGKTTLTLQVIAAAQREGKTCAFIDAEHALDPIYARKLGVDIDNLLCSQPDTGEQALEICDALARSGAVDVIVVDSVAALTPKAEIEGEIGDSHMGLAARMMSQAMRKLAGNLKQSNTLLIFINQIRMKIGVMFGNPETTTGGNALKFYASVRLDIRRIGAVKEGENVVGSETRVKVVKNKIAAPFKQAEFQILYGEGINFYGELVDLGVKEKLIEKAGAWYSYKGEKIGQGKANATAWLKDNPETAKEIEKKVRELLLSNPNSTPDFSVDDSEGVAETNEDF
EcRecA / EcLexA, sequence (P0A7G6 whole entry): as above

## iron (III) phthalocyanine-4,4′,4″,4′″-tetrasulfonic acid [4,4-Fe-PcTs]
ATCC25922 cells
  effect on ciprofloxacin-induced hydroxyl radicals: did not alter
EcRecA / EcLexA
  inhibition of LexA cleavage: inhibited
EcRecA [1]
  inhibition of RecA ssDNA-binding activity: in the micromolar range
ATCC25922 E. coli; 4,4-Fe-PcTs 25 μM + ciprofloxacin 40 nM
  total number of viable and ciprofloxacin-resistant cells relative to ciprofloxacin alone: reduced
ATCC25922 E. coli; cells treated with Fe-PcTs and ciprofloxacin
  ciprofloxacin resistant mutants over time: no ciprofloxacin resistant mutants were observed after day 4
ATCC25922 E. coli; ciprofloxacin (40 nM) and 4,4-Fe-PcTs (25 μM)
  ciprofloxacin-resistant colonies caused by pre-existing mutations: 60%
EcRecA [2]
  inhibition of RecA dsDNA-binding activity: in the micromolar range
EcRecA [3]
  inhibition of DNA strand-exchange: inhibited
[4]
  potentiation of ciprofloxacin activity: potentiated the activity of ciprofloxacin
